Experimental data published in patent US11807628B2, “Benzodiazepine derivatives and uses thereof” (priority 2018, dated 2023).
Non-standard residues stand in square brackets, D forms with d. Residues, ends and D or L forms follow the SMILES beside them. Dolaproine = CO[C@@H]([C@@H]1CCCN1)[C@@H](C)C(=O)O; Dil = CC[C@H](C)[C@H](NC)[C@@H](CC(=O)O)OC; NMeV = CN[C@H](C(=O)O)C(C)C

Assays:
HCT-116 = test: In vitro analysis of benzodiazepine dimer derivatives, MTT cell viability; type: cell-based; conditions: MTT assay, 6 days incubation
Method: (§1) Example 85: In Vitro Analysis of Benzodiazepine Dimer Derivatives A-498, HCT-116, JIMT-1, MIA-PaCa-2 and HEK-293E were seeded into 24-well plates at 10×10^3 cells/1 mL medium/well. Calu-6, PC-3 and SK-OV-3 were seeded into 24-well plates at 15×10^3 cells/1 mL medium/well. NCI-N87 was seeded into 24-well plates at 25×10^3 cells/1 mL medium/well. The plates were incubated for 24 hours at 37° C. in a humidified 5% CO2-in-air atmosphere. Benzodiazepine dimer derivatives were dissolved initially in DMSO at a concentration of 10 mM. Serial dilutions were made in DMSO. The series of compound dilutions in DMSO were added to triplicate wells of 24-well plates at 5 μL per well. Three wells on each individual plate received 5 μL of DMSO without compound as controls. The final concentration of DMSO per well was 0.5%. The plates were incubated for 6 days at 37° C. in a humidified 5% CO2-in-air atmosphere. Cell viability was determined by the MTT assay and IC50 was generated using a sigmoidal dose-response nonlinear regression curve fit (GraphPad Software Inc.).

SK-OV3 [1] = test: as above; type: cell-based; conditions: MTT assay, 6 days incubation
Method: as §1

PC-3 = test: as above; type: cell-based; conditions: MTT assay, 6 days incubation
Method: as §1

JIMT-1 [2] = test: as above; type: cell-based; conditions: MTT assay, 6 days incubation
Method: as §1

A-498 = test: as above; type: cell-based; conditions: MTT assay, 6 days incubation
Method: as §1

HEK-293E = test: as above; type: cell-based; conditions: MTT assay, 6 days incubation
Method: as §1

NCI-N87 [3] = test: as above; type: cell-based; conditions: Homo sapiens, NCI-N87, 144 h; MTT assay, 6 days incubation
Method: as §1

Calu-6 = test: as above; type: cell-based; conditions: MTT assay, 6 days incubation
Method: as §1

MIA-PaCa2 = test: as above; type: cell-based; conditions: MTT assay, 6 days incubation
Method: as §1

SK-OV3 [4] = test: Cell cytotoxicity of antibody-drug conjugate; type: cell-based; conditions: living cells quantified 96 hours later
Method: (§2) NCI-N87, JNMT-2, SK-BR3, and SK-V3 cancer cells were seeded in 96-well plates at a density of 2,000 to 8,000 cells per well in 100 μL of medium, and cultured for 24 hours. The four compounds obtained in Example 46 were treated by serial dilutions of 1:4 from 600 nM to 0.009 nM, and the antibody drug conjugate T-DM1 was treated by serial dilutions of 1:4 from 200 nM to 0.003 nM. Experiments were performed in a similar manner to Test Example 1 to quantify living cells 96 hours later, and results are shown in Table 2 below. Further, results of in vitro analysis of compound T-2-AB, T-3-AB, T-7-AB T-8-AB, T-9-AB, T-11-AB, T-12-AB, T-13-AB, T-14-AB, T-15-AB, T-16-AB, T-17-AB, T-Int-1-AB, T-Int-2-AB, T-Int-14-AB and mT-Int-8-AB were shown in FIG. 10, FIG. 11, FIG. 12, and Table 3.

JIMT-1 [5] = test: Cell cytotoxicity of antibody-drug conjugate; type: cell-based; conditions: living cells quantified 96 hours later
Method: as §2

SK-BR3 = test: Cell cytotoxicity of antibody-drug conjugate; type: cell-based; conditions: living cells quantified 96 hours later
Method: as §2

NCI-N87 [6] = test: Cell cytotoxicity of antibody-drug conjugate; type: cell-based; conditions: living cells quantified 96 hours later
Method: as §2

NCI-N87 cells = test: In vivo efficacy, tumor xenograft studies in mice; conditions: Male BALB/c nu/nu mice, tumors approximately 95 mm^3 at start, single i.v. injection day 0 (T-2-AB 0.5 or 2 mg/kg, T-DM1 2 mg/kg), 80 days observation
Method: In vivo efficacy of antibody-drug conjugates of the invention was measured by tumor xenograft studies in mice. Male BALB/c nu/nu were injected subcutaneously in the right flank with suspensions of 5×10^6 of NCI-N87 cells respectively in PBS. Mice were randomized into study groups when tumors reached approximately 95 mm^3. T-DM1 (2 mg/kg) and T-2-AB conjugates (0.5 mg/kg or 2 mg/kg) were given i.v. (single injection on treatment day 0). All treatment groups consisted of 6 to 10 animals per group, and tumor size was monitored twice weekly using caliper measurement. The tumor mass was calculated as volume=(width×width×length)/2.
T-7-AB was progressed in the same method except initial tumor size was 150 mm^3.

[7] = Homo sapiens, MIA PaCa-2, 144 h

C=C1C[C@H]2C=Nc3cc(OCc4cc(O)cc(COc5cc6c(cc5OC)C(=O)N5CC(=C)C[C@H]5C=N6)c4)c(OC)cc3C(=O)N2C1 [Compound D-1, (Phenol)-PBD-Dimer]
IC50 (HCT-116; Homo sapiens, HCT-116, 144 h): 0.109 nM
IC50 (SK-OV3 [1]; Homo sapiens, SK-OV-3, 144 h): 0.175 nM
IC50 (PC-3; Homo sapiens, PC-3, 144 h): 0.126 nM
IC50 (JIMT-1 [2]; Homo sapiens, JIMT-1, 144 h): 102 pM
IC50 (A-498; Homo sapiens, A498, 144 h): 414 pM
IC50 (HEK-293E; HEK293E, 144 h): 0.216 nM
IC50 (NCI-N87 [3]): 191 pM
IC50 (Calu-6; Homo sapiens, Calu-6, 144 h): 89 pM
IC50 (MIA-PaCa2; [7]): 0.105 nM

C=C1C[C@H]2C=Nc3cc(OCc4cncc(COc5cc6c(cc5OC)C(=O)N5CC(=C)C[C@H]5C=N6)c4)c(OC)cc3C(=O)N2C1 [Compound D-2, (Pyridine)-PBD-Dimer]
IC50 (HCT-116; Homo sapiens, HCT-116, 144 h): 0.036 nM
IC50 (SK-OV3 [1]; Homo sapiens, SK-OV-3, 144 h): 0.074 nM
IC50 (PC-3; Homo sapiens, PC-3, 144 h): 0.049 nM
IC50 (JIMT-1 [2]; Homo sapiens, JIMT-1, 144 h): 34 pM
IC50 (A-498; Homo sapiens, A498, 144 h): 64 pM
IC50 (HEK-293E; HEK293E, 144 h): 0.079 nM
IC50 (NCI-N87 [3]): 104 pM
IC50 (Calu-6; Homo sapiens, Calu-6, 144 h): 29 pM
IC50 (MIA-PaCa2; [7]): 0.044 nM

COc1cc2c(cc1OCc1cc(O)cc(COc3cc4c(cc3OC)C(=O)N3Cc5ccccc5C[C@H]3C=N4)c1)N=C[C@@H]1Cc3ccccc3CN1C2=O [Compound D-3, (Phenol)-TBD-Dimer]
IC50 (HCT-116; Homo sapiens, HCT-116, 144 h): 0.0137 ± 0.0086 nM
IC50 (SK-OV3 [1]; Homo sapiens, SK-OV-3, 144 h): 0.0596 ± 0.0182 nM
IC50 (PC-3; Homo sapiens, PC-3, 144 h): 0.0326 ± 0.0103 nM
IC50 (JIMT-1 [2]; Homo sapiens, JIMT-1, 144 h): 31 ± 15 pM
IC50 (A-498; Homo sapiens, A498, 144 h): 139 pM
IC50 (HEK-293E; HEK293E, 144 h): 0.0114 ± 0.0026 nM
IC50 (NCI-N87 [3]): 32.2 ± 21.3 pM
IC50 (Calu-6; Homo sapiens, Calu-6, 144 h): 6.2 pM
IC50 (MIA-PaCa2; [7]): 0.0106 ± 0.0046 nM

COc1cc2c(cc1OCc1cncc(COc3cc4c(cc3OC)C(=O)N3Cc5ccccc5C[C@H]3C=N4)c1)N=C[C@@H]1Cc3ccccc3CN1C2=O [Compound D-4, (Pyridine)-TBD-Dimer]
IC50 (JIMT-1 [2]; Homo sapiens, JIMT-1, 144 h): 1.7 ± 0.6 pM
IC50 (NCI-N87 [3]): 3.8 ± 2.4 pM

COc1cc2c(cc1OCc1cc(COc3cc4c(cc3OC)C(=O)N3Cc5ccccc5C[C@H]3C=N4)cc(CN(C)C)c1)N=C[C@@H]1Cc3ccccc3CN1C2=O [Compound D-5, (N,N-dimethylbenzyl)-TBD-Dimer]
IC50 (HCT-116; Homo sapiens, HCT-116, 144 h): 0.0014 ± 0.0006 nM
IC50 (SK-OV3 [1]; Homo sapiens, SK-OV-3, 144 h): 0.0109 ± 0.0027 nM
IC50 (PC-3; Homo sapiens, PC-3, 144 h): 0.0044 ± 0.0021 nM
IC50 (JIMT-1 [2]; Homo sapiens, JIMT-1, 144 h): 1.7 ± 0.5 pM
IC50 (A-498; Homo sapiens, A498, 144 h): 2.9 pM
IC50 (HEK-293E; HEK293E, 144 h): 0.0022 ± 0.0011 nM
IC50 (Calu-6; Homo sapiens, Calu-6, 144 h): 1.4 pM
IC50 (MIA-PaCa2; [7]): 0.0019 ± 0.0016 nM

COc1cc2c(cc1OCCN(CCOc1cc3c(cc1OC)C(=O)N1Cc4ccccc4C[C@H]1C=N3)c1ccncc1)N=C[C@@H]1Cc3ccccc3CN1C2=O [Compound D-6, (N-Pyridine)-TBD-Dimer]
IC50 (JIMT-1 [2]; Homo sapiens, JIMT-1, 144 h): 2980 pM
IC50 (NCI-N87 [3]): 4110 pM

COc1cc2c(cc1OCc1cc(O)cc(COc3cc4c(cc3OC)C(=O)N3c5ccccc5C[C@H]3C=N4)c1)N=C[C@@H]1Cc3ccccc3N1C2=O [Compound D-7, (Phenol)-IBD-Dimer]
IC50 (NCI-N87 [3]): 118 ± 9 pM

COc1cc2c(cc1OCc1cc(COc3cc4c(cc3OC)C(=O)N3c5ccccc5C[C@H]3C=N4)cc(CN(C)C)c1)N=C[C@@H]1Cc3ccccc3N1C2=O [Compound D-8, (N,N-dimethylbenzyl)-IBD-Dimer]
IC50 (NCI-N87 [3]): 62 ± 2 pM

COc1cc2c(cc1OCCN(C)CCOc1cc3c(cc1OC)C(=O)N1Cc4ccccc4C[C@H]1C=N3)N=C[C@@H]1Cc3ccccc3CN1C2=O [Compound D-9]
IC50 (NCI-N87 [3]): 184 ± 36 pM

C=C1C[C@H]2C=Nc3cc(OCc4cc(COc5cc6c(cc5OC)C(=O)N5CC(=C)C[C@H]5C=N6)cc(CN(C)C)c4)c(OC)cc3C(=O)N2C1 [Compound D-10]
IC50 (NCI-N87 [3]): 663 ± 116 pM

COc1cc2c(cc1OCc1cc(O)cc(COc3cc4c(cc3OC)C(=O)N3C=C(c5ccccc5)C[C@H]3C=N4)c1)N=C[C@@H]1CC(c3ccccc3)=CN1C2=O [Compound D-11]
IC50 (NCI-N87 [3]): 173 ± 34 pM

COc1cc2c(cc1OCc1cc(COc3cc4c(cc3OC)C(=O)N3Cc5cc(O)ccc5C[C@H]3C=N4)cc(CN(C)C)c1)N=C[C@@H]1Cc3ccccc3CN1C2=O [Compound D-12]
IC50 (NCI-N87 [3]): 2030 pM

COc1cc2c(cc1OCCCCCOc1cc3c(cc1OC)C(=O)N1Cc4cc(O)ccc4C[C@H]1C=N3)C=N[C@@H]1Cc3ccccc3CN1C2=O [Compound D-13]
IC50 (NCI-N87 [3]): 2030 ± 1220 pM

CC[C@H](C)[C@@H]([C@@H](CC(=O)N1CCC[C@H]1[C@H](OC)[C@@H](C)C(=O)N[C@@H](Cc1ccccc1)C(=O)OC)OC)N(C)C(=O)[C@@H](NC(=O)[C@@H](NC)C(C)C)C(C)C [MMAF-OMe, reference compound] (H-[NMeV]V[Dil][Dolaproine]F-OMe)
IC50 (HCT-116): 0.392 nM
IC50 (SK-OV3 [1]): 0.244 nM
IC50 (PC-3): 0.212 nM
IC50 (JIMT-1 [2]): 161 pM
IC50 (A-498): 233 pM
IC50 (HEK-293E): 0.97 nM
IC50 (Calu-6): 162 pM
IC50 (MIA-PaCa2): 0.852 nM

COc1cc2c(cc1OCc1cccc(COc3cc4c(cc3OC)C(=O)N3Cc5ccccc5C[C@H]3C=N4)c1)N=C[C@@H]1Cc3ccccc3CN1C2=O [Ref-1, reference compound]
IC50 (JIMT-1 [2]; Homo sapiens, JIMT-1, 144 h): 5.4 ± 1.6 pM
IC50 (NCI-N87 [3]): 3.5 ± 2.8 pM

T-DM1
IC50 (SK-OV3 [4]): 0.109 ± 0.004 nM
IC50 (JIMT-1 [5]): 3.15 ± 1.76 nM
IC50 (SK-BR3): 0.037 ± 0.012 nM
IC50 (NCI-N87 [6]): 0.234 ± 0.096 nM
Tumor size in NCI-N87 xenograft (NCI-N87 cells): less active than the conjugates of the invention
